According to patent publication US9510592B2, “Pesticidal compositions and processes related thereto” (Dow AgroSciences LLC, priority 2012, dated 2016):
Where two headings read alike, the source gives them in different places. Blank lines part the entries; values can stand above or below the molecule they belong to.

Assays:
[1] = system: Beet Armyworm (Spodoptera exigua); experiment: Bioassay on Beet Armyworm (BAW), 128-well diet tray assay; type: in vivo; details: percent mortality of second instar larvae, 50 μg/cm^2 on artificial diet, five to seven days, 25° C.; for pest or weed control at 50 µg/cm2, 50 µg/cm2: Spodoptera exigua, 168 h, read-out: BAW Rating
Method in brief: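 Second-instar larvae (one to five per well) were placed on artificial diet surface-treated with 50 μg/cm^2 compound in acetone-water and held at 25 °C, 14:10 light-dark, for five to seven days. Percent mortality was averaged over eight wells.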

[2] = system: Corn Earworm (Helicoverpa zea); experiment: Bioassay on Corn Earworm (CEW), 128-well diet tray assay; type: in vivo; details: Helicoverpa zea, 168 h; percent mortality of second instar larvae, 50 μg/cm^2 on artificial diet, five to seven days, 25° C.; Table 3; read-out: CEW Rating
Protocol: (§1) Certain molecules disclosed in this document were tested against BAW and CEW and CL using procedures described in the following examples. In the reporting of the results, the “BAW & CEW & CL Rating Table” was used (See Table Section).
Bioassays On CEW (Helicoverpa zea)
Bioassays on CEW were conducted using a 128-well diet tray assay. one to five second instar CEW larvae were placed in each well (3 mL) of the diet tray that had been previously filled with 1 mL of artificial diet to which 50 μg/cm^2 of the test compound (dissolved in 50 μL of 90:10 acetone-water mixture) had been applied (to each of eight wells) and then allowed to dry. Trays were covered with a clear self-adhesive cover, and held at 25° C., 14:10 light-dark for five to seven days. Percent mortality was recorded for the larvae in each well; activity in the eight wells was then averaged. The results are indicated in the table entitled “Table 3: Assay Results” (See Table Section).

[3] = system: Green Peach Aphid (Myzus persicae); experiment: Bioassay on Green Peach Aphid (GPA), foliar spray on cabbage seedlings; type: in vivo; details: 72 h, corrected % control (Abbott), 200 ppm spray on cabbage seedlings, three days, Table 3, read-out: GPA Rating
Protocol: Certain molecules disclosed in this document were tested against GPA using procedures described in the following example. In the reporting of the results, the “GPA Rating Table” was used (See Table Section). Cabbage seedlings grown in 3-inch pots, with 2-3 small (3-5 cm) true leaves, were used as test substrate. The seedlings were infested with 20-50 GPA (wingless adult and nymph stages) one day prior to chemical application. Four pots with individual seedlings were used for each treatment. Test compounds (2 mg) were dissolved in 2 mL of acetone/MeOH (1:1) solvent, forming stock solutions of 1000 ppm test compound. The stock solutions were diluted 5× with 0.025% Tween 20 in water to obtain the solution at 200 ppm test compound. A hand-held aspirator-type sprayer was used for spraying a solution to both sides of […] leaves until runoff. Reference plants (solvent check) were sprayed with the diluent only containing 20% by volume of acetone/MeOH (1:1) solvent. Treated plants were held in a holding room for three days at approximately 25° C. and ambient relative humidity (RH) prior to grading. Evaluation was conducted by counting the number of live aphids per plant under a microscope. Percent Control was measured by using Abbott's correction formula (W. S. Abbott, “A Method of Computing the Effectiveness of an Insecticide” J. Econ. Entomol. 18 (1925), pp. 265-267) as follows. Corrected % Control=100*(X−Y)/X • where • X=No. of live aphids on solvent check plants and • Y=No. of live aphids on treated plants The results are indicated in the table entitled “Table 3: Assay Results” (See Table Section).

[4] = system: Cabbage Looper (Trichoplusia ni); experiment: Bioassay on Cabbage Looper (CL), 128-well diet tray assay; type: in vivo; details: percent mortality of second instar larvae, 50 μg/cm^2 on artificial diet, five to seven days, 25° C.; Table 3A
Protocol: as §1
Bioassays on CL (Trichoplusia ni)
Bioassays on CL were conducted using a 128-well diet tray assay. One to five second instar CL larvae were placed in each well (3 mL) of the diet tray that had been previously filled with 1 mL of artificial diet to which 50 μg/cm^2 of the test compound (dissolved in […] of 90:10 acetone-water mixture) had been applied (to each of eight wells) and then allowed to dry. Trays were covered with a clear self-adhesive cover, and held at 25° C., 14:10 light-dark for five to seven days. Percent mortality was recorded for the larvae in each well; activity in the eight wells was then averaged. The results are indicated in the table entitled “Table 3A: Assay Results” (See Table Section).

SMILES: Cc1cc(/C=C/C(c2cc(Cl)cc(Cl)c2)C(F)(F)F)ccc1C(=O)NCc1cccnc1 (stereo not shown) [AC14]
pest or weed control at 50 µg/cm2, 50 µg/cm2 ([1]; Table 3): 50 to 100%
pest or weed control at 50 µg/cm2 [2]: 0 to 50%

SMILES: N#Cc1cc(/C=C/C(c2cc(Cl)c(Cl)c(Cl)c2)C(F)(F)F)ccc1-n1cncn1 (stereo not shown) [DC31]
pest or weed control at 200 ppm [3]: 0 to 80%
pest or weed control at 50 µg/cm2, 50 µg/cm2 ([1]; Table 3): 50 to 100%
pest or weed control at 50 µg/cm2 [2]: 50 to 100%

SMILES: O=C(CC(F)(F)F)NCc1ccc(/C=C/C(c2cc(Cl)c(Cl)c(Cl)c2)C(F)(F)F)cc1Cl (stereo not shown) [CC10]
pest or weed control at 200 ppm [3]: 0 to 80%
pest or weed control at 50 µg/cm2, 50 µg/cm2 ([1]; Table 3): 50 to 100%
pest or weed control at 50 µg/cm2 [2]: 50 to 100%

SMILES: N#Cc1cc(/C=C/C(c2cc(C(F)(F)F)cc(C(F)(F)F)c2)C(F)(F)F)ccc1-n1cncn1 (stereo not shown) [DC30]
pest or weed control at 50 µg/cm2, 50 µg/cm2 ([1]; Table 3): 50 to 100%
pest or weed control at 50 µg/cm2 [2]: 50 to 100%

SMILES: FC(F)(F)c1cc(Cl)cc(C(/C=C/c2ccc(-n3cncn3)cc2)C(F)(F)F)c1 (stereo not shown) [DC19]
pest or weed control at 50 µg/cm2, 50 µg/cm2 ([1]; Table 3): 50 to 100%
pest or weed control at 50 µg/cm2 [2]: 50 to 100%

SMILES: O=C(NC1CCN(CC(F)(F)F)CC1)c1ccc(/C=C/C(c2cc(Cl)c(Cl)c(Cl)c2)C(F)(F)F)cc1Br (stereo not shown) [AC105, (E)-2-Bromo-4-(4,4,4-trifluoro-3-(3,4,5-trichlorophenyl)but-1-en-1-yl)-N-(1-(2,2,2-trifluoroethyl)piperidin-4-yl)benzamide]
pest or weed control at 50 µg/cm2, 50 µg/cm2 ([1]; Table 3): 50 to 100%
pest or weed control at 50 µg/cm2 [2]: 50 to 100%

SMILES: CCNC(=S)NC1CCc2cc(/C=C/C(c3cc(Cl)c(Cl)c(Cl)c3)C(F)(F)F)ccc21 (stereo not shown) [BC2]
pest or weed control at 50 µg/cm2, 50 µg/cm2 ([1]; Table 3): 50 to 100%
pest or weed control at 50 µg/cm2 [2]: 50 to 100%

SMILES: O=C(CNC(=O)c1ccc(/C=C/C(c2cc(Cl)cc(Cl)c2)C(F)(F)F)cc1Cl)NCC(F)(F)F (stereo not shown) [AC57]
pest or weed control at 200 ppm [3]: 0 to 80%
pest or weed control at 50 µg/cm2, 50 µg/cm2 ([1]; Table 3): 50 to 100%
pest or weed control at 50 µg/cm2 [2]: 50 to 100%

SMILES: CCC(=O)NNC(=O)c1ccc(/C=C/C(c2cc(Cl)c(Cl)c(Cl)c2)C(F)(F)F)cc1Br (stereo not shown) [Compound F8]
pest or weed control at 50 µg/cm2, 50 µg/cm2 ([1]; Table 3A): 50 to 100%
CL Rating [4]: A (50-100)

melting point: 110 to 112 °C
SMILES: NC(=O)c1ccc(/C=C/C(c2cc(Cl)cc(Cl)c2)C(F)(F)F)cc1 (stereo not shown) [AC2]

SMILES: CN(C)NC(=O)CNC(=O)c1ccc(/C=C/C(c2cc(Cl)c(Cl)c(Cl)c2)C(F)(F)F)cc1Br (stereo not shown) [AC112]
pest or weed control at 50 µg/cm2, 50 µg/cm2 ([1]; Table 3): 50 to 100%
pest or weed control at 50 µg/cm2 [2]: 50 to 100%

SMILES: CCC(=O)N(C)NC(=O)c1ccc(/C=C/C(c2cc(Cl)c(Cl)c(Cl)c2)C(F)(F)F)cc1Br (stereo not shown) [Compound F11, (E)-2-Bromo-N′-methyl-N′-propionyl-4-(4,4,4-trifluoro-3-(3,4,5-trichlorophenyl)but-1-en-1-yl)benzohydrazide]
pest or weed control at 50 µg/cm2, 50 µg/cm2 ([1]; Table 3A): 50 to 100%
CL Rating [4]: A (50-100)

SMILES: C=CCNC(=S)NC1CCc2cc(/C=C/C(c3cc(Cl)c(Cl)c(Cl)c3)C(F)(F)F)ccc21 (stereo not shown) [BC3]
pest or weed control at 50 µg/cm2, 50 µg/cm2 ([1]; Table 3): 50 to 100%
pest or weed control at 50 µg/cm2 [2]: 50 to 100%

SMILES: O=C(NCc1ccc(Cl)nc1)c1ccc(/C=C/C(c2cc(Cl)cc(Cl)c2)C(F)(F)F)cc1Br (stereo not shown) [AC46]
pest or weed control at 50 µg/cm2, 50 µg/cm2 ([1]; Table 3): 50 to 100%
pest or weed control at 50 µg/cm2 [2]: 50 to 100%

SMILES: O=C(CC(F)(F)F)NNC(=O)c1ccc(/C=C/C(c2cc(Cl)c(Cl)c(Cl)c2)C(F)(F)F)cc1Br (stereo not shown) [Compound F1]
pest or weed control at 50 µg/cm2, 50 µg/cm2 ([1]; Table 3A): 50 to 100%
CL Rating [4]: A (50-100)

SMILES: Cc1cc(/C=C/C(c2cc(Cl)cc(Cl)c2)C(F)(F)F)ccc1C(=O)NNc1ccccc1F (stereo not shown) [AC17]
BAW Rating ([1]; Table 3): A (50-100)

SMILES: O=C(NC1CCN(C(=O)CC(F)(F)F)CC1)c1ccc(/C=C/C(c2cc(Cl)c(Cl)c(Cl)c2)C(F)(F)F)cc1Br (stereo not shown) [AC104, (E)-2-Bromo-4-(4,4,4-trifluoro-3-(3,4,5-trichlorophenyl)but-1-en-1-yl)-N-(1-(3,3,3-trifluoropropanoyl)piperidin-4-yl)benzamide]
BAW Rating ([1]; Table 3): A (50-100)
